From ChEMBL document CHEMBL1133892 (Bioorg Med Chem Lett, 2001)
pEC50, pKi: −log10 of the molar value.

Legend:
[1] = target: T1, Prostaglandin E2 receptor EP2 subtype (Mus musculus, UniProt Q62053); experiment: Effective concentration which increases intracellular c-AMP production in mouse Prostanoid EP2 receptor; assay type: functional, cell-based
[2] = target: Prostaglandin E2 receptor EP4 subtype (Mus musculus, UniProt P32240); experiment: Binding affinity towards mouse Prostanoid EP4 receptor in CHO cells.; assay type: cell-based
Prostacyclin receptor [3] = target: T2, Prostacyclin receptor (Homo sapiens, UniProt P43119); experiment: Effective concentration which increases intracellular c-AMP production in human Prostanoid IP receptor; assay type: functional, cell-based
[4] = target: T1, Prostaglandin E2 receptor EP2 subtype; experiment: Binding affinity towards mouse Prostanoid EP2 receptor expressed in CHO cells.; assay type: cell-based
Rattus norvegicus [5] = experiment: Suppression of uterine motility for the 5-min period before and after the commencenment of intravenous administration to anesthetized pregnant rats; assay type: functional
Rattus norvegicus [6] = experiment: Evaluated for its maximal response of hypotensive effect at 1000 ug/kg, iv; assay type: functional
[7] = target: T3, Prostaglandin E2 receptor EP1 subtype (Mus musculus, UniProt P35375); experiment: Binding affinity towards mouse Prostanoid EP1 receptor in CHO cells.; assay type: cell-based
T3 sequence (P35375 whole entry): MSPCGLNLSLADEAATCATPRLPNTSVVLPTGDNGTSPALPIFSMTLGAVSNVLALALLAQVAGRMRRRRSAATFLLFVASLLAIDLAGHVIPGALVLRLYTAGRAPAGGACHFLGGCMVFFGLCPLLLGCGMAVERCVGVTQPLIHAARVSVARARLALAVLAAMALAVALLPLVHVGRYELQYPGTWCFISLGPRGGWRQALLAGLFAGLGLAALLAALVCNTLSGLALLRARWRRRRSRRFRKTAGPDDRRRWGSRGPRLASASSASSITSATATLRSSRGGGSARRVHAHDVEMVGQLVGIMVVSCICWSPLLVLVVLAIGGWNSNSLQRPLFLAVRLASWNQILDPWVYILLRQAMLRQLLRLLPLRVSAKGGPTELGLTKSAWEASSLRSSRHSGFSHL

Prostacyclin receptor [8] = target: T2, Prostacyclin receptor; experiment: Binding affinity towards human Prostanoid IP receptor in CHO cells.; assay type: cell-based
[9] = target: T4, Prostaglandin E2 receptor EP3 subtype (Mus musculus, UniProt P30557); experiment: Binding affinity towards mouse Prostanoid EP3 receptor in CHO cells.; assay type: cell-based
T4 sequence (P30557 whole entry): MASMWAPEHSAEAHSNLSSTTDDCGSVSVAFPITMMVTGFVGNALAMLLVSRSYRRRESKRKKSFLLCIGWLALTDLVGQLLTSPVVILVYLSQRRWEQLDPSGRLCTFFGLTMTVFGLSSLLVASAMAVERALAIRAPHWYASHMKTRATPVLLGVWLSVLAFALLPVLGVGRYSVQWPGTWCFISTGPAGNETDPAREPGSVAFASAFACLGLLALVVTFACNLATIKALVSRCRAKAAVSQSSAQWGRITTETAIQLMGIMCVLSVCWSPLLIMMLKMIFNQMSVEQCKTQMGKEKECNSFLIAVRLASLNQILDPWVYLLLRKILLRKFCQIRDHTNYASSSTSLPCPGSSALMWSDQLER

[10] = target: T1, Prostaglandin E2 receptor EP2 subtype; experiment: Effective concentration which increases intracellular c-AMP production in mouse EP2- receptor; assay type: functional, cell-based
[11] = target: Prostaglandin E2 receptor EP2 subtype (Homo sapiens, UniProt P43116); experiment: Compound was evaluated for its competitive binding affinity towards human Prostanoid EP2 receptor in CHO cells expressing prostanoid receptor; assay type: cell-based
Rattus norvegicus [12] = experiment: Evaluated for its maximal response of hypotensive effect at 300 ug/kg, iv; assay type: functional

T1 sequence (Q62053 whole entry): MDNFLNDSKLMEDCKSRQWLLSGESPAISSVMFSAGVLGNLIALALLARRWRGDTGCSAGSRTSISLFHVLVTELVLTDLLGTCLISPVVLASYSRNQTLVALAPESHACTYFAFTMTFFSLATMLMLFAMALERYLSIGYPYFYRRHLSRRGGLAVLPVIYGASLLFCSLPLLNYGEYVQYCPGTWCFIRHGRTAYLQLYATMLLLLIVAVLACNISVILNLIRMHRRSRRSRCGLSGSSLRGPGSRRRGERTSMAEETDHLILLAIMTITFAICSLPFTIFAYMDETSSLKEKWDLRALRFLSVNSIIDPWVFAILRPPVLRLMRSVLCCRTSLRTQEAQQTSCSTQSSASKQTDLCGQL
T2 sequence (P43119 whole entry): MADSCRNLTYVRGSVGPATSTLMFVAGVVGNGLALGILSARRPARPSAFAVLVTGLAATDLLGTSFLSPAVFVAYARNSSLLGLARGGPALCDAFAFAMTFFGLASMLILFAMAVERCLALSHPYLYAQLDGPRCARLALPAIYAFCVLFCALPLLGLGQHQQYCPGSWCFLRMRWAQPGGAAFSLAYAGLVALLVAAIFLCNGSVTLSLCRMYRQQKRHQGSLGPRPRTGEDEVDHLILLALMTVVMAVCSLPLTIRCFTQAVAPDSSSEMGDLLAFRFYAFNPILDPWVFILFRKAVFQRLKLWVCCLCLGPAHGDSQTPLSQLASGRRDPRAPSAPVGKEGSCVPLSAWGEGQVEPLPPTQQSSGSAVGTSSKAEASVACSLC
Prostaglandin E2 receptor EP4 subtype, sequence (P32240 whole entry): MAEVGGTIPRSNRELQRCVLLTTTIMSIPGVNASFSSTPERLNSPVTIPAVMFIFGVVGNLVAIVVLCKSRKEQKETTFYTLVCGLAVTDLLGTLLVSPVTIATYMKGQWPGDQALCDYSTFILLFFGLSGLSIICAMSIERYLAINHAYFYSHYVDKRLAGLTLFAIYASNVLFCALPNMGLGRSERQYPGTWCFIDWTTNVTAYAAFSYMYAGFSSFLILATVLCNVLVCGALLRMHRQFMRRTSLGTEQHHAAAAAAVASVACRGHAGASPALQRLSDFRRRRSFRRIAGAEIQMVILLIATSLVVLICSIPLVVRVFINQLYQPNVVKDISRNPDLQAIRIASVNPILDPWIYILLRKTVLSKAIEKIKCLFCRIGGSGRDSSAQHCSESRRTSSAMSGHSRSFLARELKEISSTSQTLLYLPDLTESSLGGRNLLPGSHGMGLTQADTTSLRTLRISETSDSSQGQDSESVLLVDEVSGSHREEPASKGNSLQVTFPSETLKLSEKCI
Prostaglandin E2 receptor EP2 subtype (Homo sapiens, UniProt P43116), sequence (P43116 whole entry): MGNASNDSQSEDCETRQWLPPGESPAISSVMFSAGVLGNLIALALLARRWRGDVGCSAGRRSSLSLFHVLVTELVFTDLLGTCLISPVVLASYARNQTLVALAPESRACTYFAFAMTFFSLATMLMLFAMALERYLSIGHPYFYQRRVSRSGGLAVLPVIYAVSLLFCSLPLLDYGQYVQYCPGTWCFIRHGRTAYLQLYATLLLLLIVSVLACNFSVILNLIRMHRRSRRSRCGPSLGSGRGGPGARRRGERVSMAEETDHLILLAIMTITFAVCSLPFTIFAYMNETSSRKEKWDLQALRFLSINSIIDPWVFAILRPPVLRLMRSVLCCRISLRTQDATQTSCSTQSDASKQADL

Compound	pEC50 [1]	pKi [2]	pEC50 (Prostacyclin receptor [3])	pKi [4]	ED50 (Rattus norvegicus [5])	Max response (Rattus norvegicus [6])	pKi [7]	pKi (Prostacyclin receptor [8])	pKi [9]	pEC50 [10]	pKi [11]	Max response (Rattus norvegicus [12])
CCCC1([C@@H](O)C/C=C/C2[C@H](O)CC(=O)[C@@H]2C/C=C/CCCC(=O)O)CCC1 (some centres undefined)	7.37	< 5.00	< 5.00	7.04	0.275 mg/kg	22.8 delta mmHg	< 5.00	–	–	–	–	–
CCCCCC1([C@@H](O)C/C=C/[C@H]2[C@H](O)CC(=O)[C@@H]2C/C=C\CCCC(=O)O)CCC1	6.89	5.68	–	7.70	–	–	5.80	< 5.00	6.08	–	–	–
CCCC1([C@@H](O)C/C=C/[C@H]2[C@H](O)CC(=O)[C@@H]2C/C=C\CCCC(=O)O)CCC1	6.66	< 5.00	–	6.48	–	–	< 5.00	< 5.00	5.92	–	–	–
CCCCC1([C@@H](O)C/C=C/[C@H]2[C@H](O)CC(=O)[C@@H]2C/C=C\CCCC(=O)O)CCC1	7.15	< 5.00	–	7.37	–	–	6.11	< 5.00	5.70	–	–	–
CC(C)CC1([C@@H](O)C/C=C/[C@H]2[C@H](O)CC(=O)[C@@H]2C/C=C\CCCC(=O)O)CCC1	7.35	< 5.00	–	7.40	–	–	< 5.00	< 5.00	–	–	–	–
CCCC1([C@@H](O)C/C=C/C2[C@H](O)CC(=O)[C@@H]2CCCCCCC(=O)OC)CCC1 (some centres undefined)	–	< 5.00	7.43	5.62	–	–	< 5.00	< 5.00	< 5.00	7.48	–	–
CCC1([C@@H](O)C/C=C/[C@@H]2[C@@H](C/C=C\CCCC(=O)O)[C@@H](Cl)C[C@H]2O)CCC1	7.41	< 5.00	–	7.89	–	–	< 5.00	< 5.00	< 5.00	–	–	–
CCCC1([C@@H](O)C/C=C/C2[C@H](O)CC(=O)[C@@H]2CC#CCCCC(=O)O)CCC1 (some centres undefined)	–	< 5.00	–	5.96	–	–	< 5.00	–	< 5.00	–	–	–
CCCC1([C@@H](O)C/C=C/[C@H]2[C@H](O)CC(=O)[C@@H]2C/C=C\CCCC(=O)O)CCCC1	6.24	< 5.00	–	6.43	–	–	< 5.00	< 5.00	–	–	–	–
CCCC1([C@@H](O)C/C=C/[C@H]2[C@H](O)CC(=O)[C@@H]2C/C=C\CCCC(=O)O)CCCCC1	< 5.00	< 5.00	–	5.48	–	–	< 5.00	–	–	–	–	–
CCC1([C@@H](O)C/C=C/[C@@H]2[C@@H](C/C=C\CCCC(=O)O)[C@H](Cl)C[C@H]2O)CCC1	8.55	< 5.00	–	8.66	0.0329 mg/kg	–	5.47	< 5.00	< 5.00	–	9.13	24.4 delta mmHg
CCC1([C@@H](O)C/C=C/[C@@H]2[C@@H](C/C=C\CCCC(=O)O)CC[C@H]2O)CCC1	5.85	< 5.00	–	7.96	–	–	5.29	< 5.00	< 5.00	–	–	–
CCCC1([C@@H](O)C/C=C/C2[C@H](O)CC(=O)[C@@H]2CCc2ccc(C(=O)O)cc2)CCC1 (some centres undefined)	7.27	< 5.00	< 5.00	7.60	–	–	< 5.00	–	–	–	–	–
CCC1([C@@H](O)C/C=C/[C@H]2[C@H](O)CC(=O)[C@@H]2C/C=C\CCCC(=O)O)CCC1	7.96	< 5.00	–	7.52	–	–	< 5.00	< 5.00	–	–	–	–
CCCC1([C@@H](O)C/C=C/C2[C@H](O)CC(=O)[C@@H]2CCCCCCC(=O)O)CCC1 (some centres undefined)	7.49	< 5.00	7.60	7.14	0.455 mg/kg	39.8 delta mmHg	< 5.00	6.06	< 5.00	–	–	–
CCCCC[C@@H](O)/C=C/[C@H]1[C@H](O)CC(=O)[C@@H]1C/C=C\CCCC(=O)O	8.68	–	6.59	7.42	> 1.8 mg/kg	–	7.74	< 5.00	8.30	–	–	–
CCCCCC(O)/C=C/[C@H]1[C@H](O)CC(=O)[C@@H]1CCCCCCC(=O)O (single isomer, unassigned) [ALPROSTADIL]	8.59	8.48	8.74	7.06	–	–	7.00	6.82	8.30	–	–	–
